In one experiment the test system is SW620. Briefly: CCK-8 proliferation, SW620. Particulars: Homo sapiens, SW-620; CCK-8; 96 hours; read-out: Inhibitory activity (IC50) on tumor cell proliferation, SW620. In kind it is cell-based. An outline of the steps: (§1)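 Tumor cells were cultured at 37°C with 5% CO2, seeded, and after 24h treated with compounds at 10 concentrations starting at 10µM (5-fold serial dilutions).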

A further experiment has as its system LS174T. Briefly: CCK-8 proliferation, LS174T. The conditions noted are these: Homo sapiens, read-out: Inhibitory activity (IC50) on tumor cell proliferation, LS174T. It counts as cell-based. Here is the method: (§2) IC50 values of the compounds of the present disclosure (including the compounds in Table 1, and compounds of examples) were measured using the Meilun Cell Counting Kit-8 kit from Dalian Meilun Biotech Co., Ltd. Assay details are as follows: tumor cells were seeded in a 96-well plate at a density listed in Table A2. After 24h, 100 µL of the inoculated cells were treated with 0.5µL of the compounds of the present disclosure (including the compounds in Tables 1 and 2, and compounds of examples) at 10 different successively decreasing concentrations (starting at the highest concentration of 10µM; 5-fold serial dilutions). After the cells were treated with the compounds of the present disclosure for a period of time, the cell viability detection reagent was added to the culture medium for cell viability assessment according to the instructions provided with the CCK-8 kit. […] The growth inhibition of the compounds of the present disclosure on cells was plotted by Prism Graphpad software, and the IC50 values of the compounds of the present disclosure were calculated therefrom. [drawing 1519] Table A2. Seeding protocol and treatment time for tumor cells

Another experiment relates to CCRF-CEM. Briefly: CCK-8 proliferation, CCRF-CEM. In kind it is cell-based, Human. The conditions noted are these: Homo sapiens, CCRF-CEM; CCK-8; 96 hours; read-out: Inhibitory activity (IC50) on tumor cell proliferation, CCRF-CEM. The gist of the method:
as §1

A further experiment has as its system THP-1. The experiment is described as follows: CCK-8 proliferation, THP-1. In kind it is cell-based. The conditions noted are these: Homo sapiens, 72 hours, read-out: Inhibitory activity (IC50) on tumor cell proliferation, THP-1. Here is the method:
(§3) The tumor cells used herein were cultured in a cell culture medium listed in table A1 at 37°C in an incubator with 5% CO2. Prior to experimentation, all cell lines used were correctly identified by STR profiling, and tested negative for mycoplasma contamination using a mycoplasma detection kit through routine screenings. Table A1. Tumor cells and cell culture medium used in the present disclosure
as §2, with “[drawing 1519] Table A2.” left out

A further experiment relates to TMD8. Briefly: CCK-8 proliferation, TMD8. It counts as cell-based. Particulars: Homo sapiens, TMD8; CCK-8; 72 hours; read-out: Inhibitory activity (IC50) on tumor cell proliferation, TMD8. The method, then: as §3
as §2, with “[drawing 1519] Table A2.” left out

The subject of another experiment is Jurkat. The experiment is described as follows: CCK-8 proliferation, Jurkat. It counts as cell-based, Human. The conditions noted are these: Homo sapiens, Jurkat; CCK-8; 96 hours; read-out: Inhibitory activity (IC50) on tumor cell proliferation, Jurkat. The gist of the method:
as §1

In the next experiment the test system is LNcap. Briefly: CCK-8 proliferation, LNcap. The conditions noted are these: Homo sapiens, LNCaP; CCK-8; 96 hours; read-out: Inhibitory activity (IC50) on tumor cell proliferation, Lncap. In kind it is cell-based. The method, then:
as §3
as §2, with “[drawing 1519] Table A2.” left out

For the next experiment, the system named is SR. The experiment is described as follows: CCK-8 proliferation, SR. In kind it is cell-based, Human. Particulars: Homo sapiens, SR; CCK-8; 72 hours; read-out: Inhibitory activity (IC50) on tumor cell proliferation, SR. An outline of the steps:
as §1

Another experiment relates to MV-4-11. Briefly: CCK-8 proliferation, MV-4-11. The conditions noted are these: Homo sapiens, MV4-11; CCK-8; 72 or 96 hours; read-out: Inhibitory activity (IC50) on tumor cell proliferation, MV-4-11. In kind it is cell-based, Human. An outline of the steps: as §1
A further experiment has as its system CAL-62. The experiment is described as follows: CCK-8 proliferation, CAL-62. The conditions noted are these: Homo sapiens, 72 hours, read-out: Inhibitory activity (IC50) on tumor cell proliferation, CAL-62. It counts as cell-based. Here is the method: as §3
as §2, with “[drawing 1519] Table A2.” left out

In a further experiment the test system is H1975. Briefly: CCK-8 proliferation, NCI-H1975 (H1975). Particulars: Homo sapiens, NCI-H1975; CCK-8; 96 hours; read-out: Inhibitory activity (IC50) on tumor cell proliferation, H1975. In kind it is cell-based, Human. An outline of the steps:
as §1

In the next experiment the test system is MM.1R. Briefly: CCK-8 proliferation, MM.1R. Particulars: CCK-8, 72 hours, read-out: Inhibitory activity (IC50) on tumor cell proliferation, MM.1R. It counts as cell-based. The gist of the method:
as §1

In another experiment the target is T1, FAK (Homo sapiens, UniProt Q05397).
T1 construct: evaluate the effects of the compounds of the present disclosure on the expression of target proteins in cells; endogenous in cells
T1 sequence (Q05397 whole entry, species assumed): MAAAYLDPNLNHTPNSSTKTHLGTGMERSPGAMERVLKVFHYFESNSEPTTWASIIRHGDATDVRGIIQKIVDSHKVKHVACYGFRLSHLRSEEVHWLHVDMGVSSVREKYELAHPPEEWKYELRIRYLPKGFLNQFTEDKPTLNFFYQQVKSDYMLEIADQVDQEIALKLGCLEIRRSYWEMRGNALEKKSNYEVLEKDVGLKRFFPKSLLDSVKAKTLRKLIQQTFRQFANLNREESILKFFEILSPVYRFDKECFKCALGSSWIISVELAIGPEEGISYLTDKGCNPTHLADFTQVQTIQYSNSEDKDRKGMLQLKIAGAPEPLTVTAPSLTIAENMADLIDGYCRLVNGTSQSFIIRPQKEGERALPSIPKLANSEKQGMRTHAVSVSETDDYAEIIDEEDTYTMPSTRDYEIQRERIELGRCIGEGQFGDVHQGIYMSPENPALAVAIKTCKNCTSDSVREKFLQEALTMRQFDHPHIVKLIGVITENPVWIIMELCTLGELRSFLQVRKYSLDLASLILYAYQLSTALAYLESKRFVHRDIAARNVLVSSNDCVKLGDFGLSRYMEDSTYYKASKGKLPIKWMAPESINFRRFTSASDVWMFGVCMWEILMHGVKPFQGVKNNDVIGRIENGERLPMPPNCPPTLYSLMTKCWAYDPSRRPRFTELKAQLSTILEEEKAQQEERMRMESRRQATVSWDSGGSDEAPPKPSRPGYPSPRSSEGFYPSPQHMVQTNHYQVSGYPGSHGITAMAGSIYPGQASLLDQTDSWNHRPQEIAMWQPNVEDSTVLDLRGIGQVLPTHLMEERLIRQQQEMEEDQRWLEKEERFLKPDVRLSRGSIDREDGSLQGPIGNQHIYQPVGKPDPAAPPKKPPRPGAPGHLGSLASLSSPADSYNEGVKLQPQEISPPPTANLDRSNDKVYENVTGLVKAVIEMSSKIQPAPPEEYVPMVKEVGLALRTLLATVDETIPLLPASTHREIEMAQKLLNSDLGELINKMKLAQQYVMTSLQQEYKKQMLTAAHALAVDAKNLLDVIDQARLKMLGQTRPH
The experiment is described as follows: Western blot degradation of FAK. It counts as cell-based. The conditions noted are these: Table D7. An outline of the steps: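 After compound exposure, cells were harvested and lysates run on SDS-PAGE, transferred to nitrocellulose and probed with antibodies. Remaining target (%) was computed from band grayscale relative to an internal control protein and normalised; degradation (%) was 100% minus that.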
Background: A western blot detects proteins with antibodies after separation by electrophoresis.

For experiment [1], the target named is T2, human Cereblon WT GST-tagged protein (Homo sapiens, UniProt Q96SW2).
T2 construct: purchased CISBIO 64BDCRBNPEH
T2 sequence (Q96SW2 whole entry): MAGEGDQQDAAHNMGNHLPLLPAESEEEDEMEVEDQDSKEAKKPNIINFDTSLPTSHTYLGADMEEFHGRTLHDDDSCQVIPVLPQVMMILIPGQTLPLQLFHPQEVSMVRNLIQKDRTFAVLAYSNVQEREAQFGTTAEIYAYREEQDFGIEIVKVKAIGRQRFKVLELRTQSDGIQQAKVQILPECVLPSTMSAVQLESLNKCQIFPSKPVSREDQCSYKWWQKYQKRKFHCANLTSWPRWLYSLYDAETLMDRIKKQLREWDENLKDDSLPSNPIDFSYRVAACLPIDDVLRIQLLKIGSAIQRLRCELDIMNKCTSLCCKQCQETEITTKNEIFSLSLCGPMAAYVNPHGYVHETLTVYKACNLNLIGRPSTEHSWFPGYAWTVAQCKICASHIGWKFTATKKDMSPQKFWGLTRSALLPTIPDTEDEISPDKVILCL
Briefly: CRBN binding, HTRF (CEREBLON BINDING kit). Particulars: Table II-2, CRBN binding screening, HTRF; for inhibition at 0.5 µM: read-out: Inhibition rate (%) at 0.5µM; for inhibition at 2 µM: read-out: Inhibition rate (%) at 2 µM. An outline of the steps: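 Competitive HTRF: GST-tagged human WT Cereblon mixed with compound, Thalidomide-Re tracer and GST Eu antibody, incubated 3 h at room temperature. Signals read at 620 and 665 nm.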
A general note: TR-FRET usually uses a lanthanide donor and a delayed reading to cut background.

For the next experiment, the system named is BXPC-3. Briefly: CCK-8 proliferation, BXPC-3. In kind it is cell-based. Particulars: Homo sapiens, 96 hours, read-out: Inhibitory activity (IC50) on tumor cell proliferation, BXPC-3. Here is the method:
as §3
as §2, with “[drawing 1519] Table A2.” left out

`CC1(C)CCC(CN2CCN(c3ccc(C(=O)NS(=O)(=O)c4ccc(NCC5CCOCC5)c([N+](=O)[O-])c4)c(Oc4cnc5[nH]ccc5c4)c3)CC2)=C(c2ccc(Cl)cc2)C1` [ABT-199, Venetoclax, reference compound]: the IC50 is greater than 10000 nM in the experiment with SW620; greater than 10000 nM with LS174T; 1000 to 5000 nM in the experiment with CCRF-CEM; 500 to 1000 nM in the experiment on THP-1; 1000 to 5000 nM with TMD8; 1000 to 5000 nM with Jurkat. The IC50 in the experiment on LNcap is greater than 10000 nM.
As for `CC1(C)CCC(c2ccc(Cl)cc2)=C(CN2CCN(c3ccc(C(=O)NS(=O)(=O)c4ccc(N[C@H](CCN5CCOCC5)CSc5ccccc5)c(S(=O)(=O)C(F)(F)F)c4)cc3)CC2)C1` [ABT-263, Navitoclax, reference compound], the IC50 in the experiment with SW620 lay in the range of 500 to 1000 nM; in the experiment with LS174T, 500 to 1000 nM; in the experiment on CCRF-CEM, 100 to 500 nM; with THP-1, 100 to 500 nM; with TMD8, 1000 to 5000 nM; with Jurkat, 100 to 500 nM. Besides, in the experiment with LNcap, the IC50 is 1000 to 5000 nM.
Take `CNC(=O)c1ccc(Nc2ncc(C(F)(F)F)c(NCc3nccnc3N(C)S(C)(=O)=O)n2)cc1` [Defactinib, reference compound]: the IC50 fell in the range of 500 to 1000 nM in the experiment with SR; 50 to 100 nM in the experiment with MV-4-11; 1000 to 5000 nM with SW620; 1000 to 5000 nM in the experiment with CCRF-CEM; 5000 to 10000 nM in the experiment on CAL-62; 1000 to 5000 nM in the experiment with H1975. In addition, the IC50 in the experiment on MM.1R and with Jurkat was 1000 to 5000 nM in each case.
Regarding `CNC(=O)c1ccccc1Nc1cc(Nc2ccc(N3CCC(N4CCN(Cc5ccc(C6CCC(=O)NC6=O)c(F)c5)CC4)CC3)cc2OC)ncc1C(F)(F)F` (stereo not shown) [GT-03600, 2-((2-((4-(4-(4-(4-(2,6-dioxopiperidin-3-yl)-3-fluorobenzyl)piperazin-1-yl)piperidin-1-yl)-2-methoxyphenyl)amino)-5-(trifluoromethyl)pyridin-4-yl)amino)-N-methylbenzamide], the IC50 was 50 to 100 nM in the experiment with SR; 50 to 100 nM with SW620; 500 to 1000 nM in the experiment with CCRF-CEM; 100 to 500 nM in the experiment with CAL-62; 500 to 1000 nM with H1975; 500 to 1000 nM in the experiment with MM.1R. In addition, the “Degradation of substrate protein FAK (substrate protein remaining %)” value (shortened to “Degradation … (substrate protein remaining %)”) at FAK is “A (A is defined as 0% ≤ substrate protein remaining % ≤ 80%)”.
Take `CNC(=O)c1ccccc1Nc1cc(Nc2ccc(N3CCC(N(C)Cc4ccc(C5CCC(=O)NC5=O)cc4)CC3)cc2OC)ncc1C(F)(F)F` (stereo not shown) [GT-03733, 2-((2-((4-(4-((4-(2,6-dioxopiperidin-3-yl)benzyl)(methyl)amino)piperidin-1-yl)-2-methoxyphenyl)amino)-5-(trifluoromethyl)pyridin-4-yl)amino)-N-methylbenzamide]: the IC50 with SR fell in the range of 50 to 100 nM; with MV-4-11, 100 to 500 nM; in the experiment with SW620 it was 100 to 500 nM; in the experiment on CCRF-CEM, 100 to 500 nM; in the experiment with CAL-62 it was 50 to 100 nM; in the experiment on H1975 it was 100 to 500 nM. Besides, the IC50 in the experiment on MM.1R was 500 to 1000 nM. For the same molecule, on FAK, the “Degradation … (substrate protein remaining %)” value is given as “A (A is defined as 0% ≤ substrate protein remaining % ≤ 80%)”. For the same molecule, the inhibition (commonly the percentage by which the read-out fell short of the control) at 0.5 µM in experiment [1] fell in the range of 30 to 40%. In experiment [1], the inhibition at 2 µM was 40 to 53%.
For the molecule `CNC(=O)c1ccccc1Nc1cc(Nc2ccc(N3CCC(N(C)Cc4ccc(C5CCC(=O)NC5=O)c(F)c4)CC3)cc2OC)ncc1C(F)(F)F` (stereo not shown) [GT-03734, 2-((2-((4-(4-((4-(2,6-dioxopiperidin-3-yl)-3-fluorobenzyl)(methyl)amino)piperidin-1-yl)-2-methoxyphenyl)amino)-5-(trifluoromethyl)pyridin-4-yl)amino)-N-methylbenzamide], the IC50 in the experiment with SR was 50 to 100 nM; in the experiment with MV-4-11 it was 100 to 500 nM; in the experiment with SW620, 100 to 500 nM; in the experiment with CCRF-CEM, 100 to 500 nM; in the experiment with CAL-62 it was 50 to 100 nM; in the experiment on H1975 it was 100 to 500 nM. Further, on FAK, the “Degradation … (substrate protein remaining %)” value is “A (A is defined as 0% ≤ substrate protein remaining % ≤ 80%)”.
Consider `CNC(=O)c1ccccc1Nc1cc(Nc2cc(C)c(N3CCC(N(C)Cc4ccc(C5CCC(=O)NC5=O)cc4)CC3)cc2OC(C)C)ncc1C(F)(F)F` (stereo not shown) [GT-04094, 2-((2-((4-(4-((4-(2,6-dioxopiperidin-3-yl)benzyl)(methyl)amino)piperidin-1-yl)-2-isopropoxy-5-methylphenyl)amino)-5-(trifluoromethyl)pyridin-4-yl)amino)-N-methylbenzamide], for which the figures for the IC50 in the experiment on SW620, with CCRF-CEM and with CAL-62 were 100 to 500 nM, 500 to 1000 nM and 500 to 1000 nM, respectively. Moreover, the “Degradation … (substrate protein remaining %)” value on FAK is “A (A is defined as 0% ≤ substrate protein remaining % ≤ 80%)”. In addition, the inhibition at 0.5 µM in experiment [1] lay in the range of 10 to 20%. For the same molecule, the inhibition at 2 µM in experiment [1] was in the range of 53 to 60%.
For `Cc1ccc(-c2c(C)noc2C)cc1N(CC1CCN(Cc2cccc(NC3CCC(=O)NC3=O)c2)CC1)c1ccc(C2(C#N)CC2)cc1` (stereo not shown) [GT-04841, 1-(4-((5-(3,5-dimethylisoxazol-4-yl)-2-methylphenyl)((1-(3-((2,6-dioxopiperidin-3-yl)amino)benzyl)piperidin-4-yl)methyl)amino)phenyl)cyclopropane-1-carbonitrile], the IC50 in the experiment on THP-1 was in the range of 500 to 1000 nM; in the experiment on BXPC-3, 100 to 500 nM.
The corresponding values for `Cc1ccc(-c2c(C)noc2C)cc1N(CC1CCN(Cc2cccc(N3CCC(=O)NC3=O)c2)CC1)c1ccc(C2(C#N)CC2)cc1` [GT-04842, 1-(4-((5-(3,5-dimethylisoxazol-4-yl)-2-methylphenyl)((1-(3-(2,4-dioxotetrahydropyrimidin-1(2H)-yl)benzyl)piperidin-4-yl)methyl)amino)phenyl)cyclopropane-1-carbonitrile] are 500 to 1000 nM and 500 to 1000 nM.
Take `CNC(=O)c1ccccc1Nc1cc(Nc2ccc(N3CCOCC3)cc2OC)ncc1C(F)(F)F` [PND-1186, reference compound]: the IC50 in the experiment with MV-4-11 is 100 to 500 nM; with CCRF-CEM, 1000 to 5000 nM; in the experiment on CAL-62 it was 1000 to 5000 nM; in the experiment on MM.1R it was 500 to 1000 nM; with Jurkat it was 1000 to 5000 nM.
